{"source": "ChEMBL document CHEMBL1134878", "about": "“L-Cysteine based N-type calcium channel blockers: structure-activity relationships of the C-terminal lipophilic moiety, and oral analgesic efficacy in rat pain models” (Bioorg Med Chem Lett, 2002)", "key": {"[1]": {"assay": "(§1) In vitro inhibition of calcium influx (L-type blocking activity) in AtT-20 mouse pituitary tumor-derived cells", "settings": "AtT20"}, "[2]": {"biological_target": "T1, Voltage-dependent N-type calcium channel subunit alpha-1B (Homo sapiens, UniProt Q00975)", "assay": "In vitro inhibition of N-type calcium channel influx in IMR-32 human neuroblastoma cells", "assay_type": "cell-based"}, "[3]": {"assay": "Selectivity IC50 ratio of L-type blocking activity (AtT-20 mouse pituitary tumor-derived cells) to that of N-type blocking activity (IMR-32 human neuroblastoma cells)"}, "[4]": {"assay": "Partition coefficient (logP)", "assay_type": "physicochemical", "settings": "octanol/water"}, "[5]": {"assay": "as §1", "assay_type": "functional", "settings": "AtT20"}, "[6]": {"assay": "Selectivity IC50 ratio of L-type [Ca2+] channel blocking activity (AtT-20 mouse pituitary tumor-derived cells) to that of N-type blocking activity (IMR-32 human neuroblastoma cells)"}, "[7]": {"biological_target": "T1, Voltage-dependent N-type calcium channel subunit alpha-1B", "assay": "Percentage inhibition of N-type calcium channel influx in IMR-32 human neuroblastoma cells at 3 uM", "assay_type": "cell-based"}, "Rattus norvegicus [8]": {"test_system": "Rattus norvegicus", "assay": "Minimum effective oral dose required for the antinociceptive effects on thermal hyperalgesia induced by CCI (chronic constriction injury) of the sciatic nerve in rat", "assay_type": "functional", "settings": "read-out: MED"}, "Rattus norvegicus [9]": {"test_system": "Rattus norvegicus", "assay": "Minimum effective oral dose required for the inhibition of paw flinching in rat formalin induced pain model", "assay_type": "functional", "settings": "read-out: MED"}}, "data": [{"smiles": "CC(C)(C)OC(=O)N1CSC[C@H]1C(=O)N[C@@H](CSCC1CCCCC1)C(=O)N1CCN(c2ccccc2)CC1", "values": [{"measurement": "IC50", "setting": "[1]", "result": 580, "unit": "nM"}, {"measurement": "IC50", "setting": "[2]", "result": 390, "unit": "nM"}, {"measurement": "Ratio", "setting": "[3]", "result": 1.5}]}, {"smiles": "CC(C)(C)OC(=O)N1CSC[C@H]1C(=O)N[C@@H](CSCC1CCCCC1)C(=O)NC1CCN(c2ccccc2)CC1", "values": [{"measurement": "IC50", "setting": "[1]", "result": 540, "unit": "nM"}, {"measurement": "IC50", "setting": "[2]", "result": 150, "unit": "nM"}, {"measurement": "Ratio", "setting": "[3]", "result": 3.6}]}, {"smiles": "CC(C)(C)OC(=O)N1CSC[C@H]1C(=O)N[C@@H](CSCC1CCCCC1)C(=O)N1CCN(Cc2ccccc2)CC1", "values": [{"measurement": "IC50", "setting": "[1]", "result": 1000, "unit": "nM"}, {"measurement": "IC50", "setting": "[2]", "result": 370, "unit": "nM"}, {"measurement": "Ratio", "setting": "[3]", "result": 2.7}]}, {"smiles": "CC(C)(C)OC(=O)N1CSC[C@H]1C(=O)N[C@@H](CSCC1CCCCC1)C(=O)NCCNCc1ccccc1", "values": [{"measurement": "logP", "setting": "[4]", "result": 2.8}, {"measurement": "IC50", "setting": "[1]", "result": 2400, "unit": "nM"}, {"measurement": "IC50", "setting": "[2]", "result": 380, "unit": "nM"}, {"measurement": "Ratio", "setting": "[3]", "result": 6.3}]}, {"smiles": "CC(C)(C)OC(=O)N1CSC[C@H]1C(=O)N[C@@H](CSCC1CCCCC1)C(=O)N1CCC(Nc2ccccc2)CC1", "values": [{"measurement": "IC50", "setting": "[5]", "result": 540, "unit": "nM"}, {"measurement": "Ratio", "setting": "[6]", "result": 0.82}, {"measurement": "IC50", "setting": "[2]", "result": 660, "unit": "nM"}]}, {"smiles": "CC(C)(C)OC(=O)N1CSC[C@H]1C(=O)N[C@@H](CSCC1CCCCC1)C(=O)NC1CCN(Cc2ccccc2)CC1", "values": [{"measurement": "logP", "setting": "[4]", "result": 3.5}, {"measurement": "IC50", "setting": "[5]", "result": 5000, "unit": "nM"}, {"measurement": "Ratio", "setting": "[6]", "result": 15}, {"measurement": "inhibition", "setting": "[7]", "result": 75, "unit": "%"}, {"measurement": "IC50", "setting": "[2]", "result": 330, "unit": "nM"}, {"measurement": "minimal effective dose", "setting": "Rattus norvegicus [8]", "result": 30, "unit": "mg/kg"}, {"measurement": "minimal effective dose", "setting": "Rattus norvegicus [9]", "result": 10, "unit": "mg/kg"}]}, {"smiles": "CC(C)(C)OC(=O)N1CSC[C@H]1C(=O)N[C@@H](CSCC1CCCCC1)C(=O)N1CCC(NCc2ccccc2)CC1", "values": [{"measurement": "IC50", "setting": "[5]", "result": 2600, "unit": "nM"}, {"measurement": "Ratio", "setting": "[6]", "result": 5.2}, {"measurement": "IC50", "setting": "[2]", "result": 500, "unit": "nM"}]}, {"smiles": "CC(C)(C)OC(=O)N1CSC[C@H]1C(=O)N[C@@H](CSCC1CCCCC1)C(=O)NCc1ccc(Oc2ccccc2)cc1", "values": [{"measurement": "logP", "setting": "[4]", "result": 5}, {"measurement": "IC50", "setting": "[1]", "result": 1700, "unit": "nM"}, {"measurement": "minimal effective dose", "setting": "Rattus norvegicus [9]", "result": "> 100", "unit": "mg/kg"}, {"measurement": "Ratio", "setting": "[3]", "result": 12}]}]}
